Experimental data from PubChem BioAssay AID2060503 (Molecular Pharmacology Branch, DTP, NCI, 2025).
Several values for one entry are separate records, joined by “and”; a condition that tells them apart may be missing. Equal entries are not always repeated.

Tested on: 817829-284-R-J1-PDC complex spheroids, viability
Assay: Anticancer human tumor 817829-284-R-J1-PDC patient-derived colon adenocarcinoma cell line growth inhibition [GQUAD]
Details: for viability, T/C: stronger effect = lower value; active means viability on the fitted dose curve at most 10% of control; inactive means the rest
Source text: DNA G-quadruplex Stabilizer Agents in Combinations in Complex Spheroids
A high-throughput screen of multi-cell type tumor spheroids was designed to identify active combinations of DNA G-quadruplex stabilizer agents and targeted small molecules. Complex spheroids include a stromal component modeled by human endothelial cells (HUVEC) and fibroblasts modeled by human mesenchymal stem cells (MSCs). The concentration ranges selected for each drug and investigational agent were based upon clinically achievable concentrations if the clinical Cmax of the agent was known.
Compounds. The drugs and investigational agents: pidnarulex (CX-5461; NSC782164), APTO-253 (NSC789042), BRACO-19 (NSC847499), peposertib (NSC802822), ceralasertib (NSC780249), elimusertib (NSC800525), camonsertib (NSC841442), AZD-1390 (NSC803789), olaparib (NSC753686), talazoparib (NSC767125), ART-558 (NSC835418), sotorasib (NSC818433), MRTX-1133 (NSC836407), SN-38 (NSC673596), topotecan (NSC609699), etoposide (NSC141540), doxorubicin (NSC123127), gemcitabine (NSC613327), 5-fluorouracil (NSC19893), paclitaxel (NSC125973), vemurafenib (NSC761431), panobinostat (NSC761190), R-306465 (JNJ-16241199; NSC773264), adavosertib (NSC754352), TP-3654 (NSC805149), carboplatin (NSC241240), KSQ-4279 (NSC840948), and staurosporine (NSC755774) were obtained from the National Cancer Institute (NCI) Developmental Therapeutics Program Chemical Repository (34). The FDA-approved anticancer drug set is available from the NCI Developmental Therapeutics Program. […] The stock solutions were prepared in dimethyl sulfoxide (DMSO, Sigma-Aldrich, St. Louis, MO, cat. D2650) at 800-fold the tested concentration and stored at -70 degrees C prior to their use. All drugs and investigational agents were tested over a range starting from a high concentration at or near the clinical Cmax and decreasing in half-log increments. If the clinical Cmax for an agent had not been determined, the highest concentration tested was 10 microM.
2.3 Cell Culture. All cells were maintained in an incubator at 37 degrees C and 5% CO2 with 95% humidity. The PDC lines were cultured according to standard operating procedures established by the NCI PDMR. All PDCs were thawed and cultured in Matrigel-coated flasks prepared with a working solution of 1X Ham's F-12 nutrient mix, without supplementation (Invitrogen, cat. 11765054), 100 U/mL penicillin-streptomycin (Invitrogen, cat. 15140122), and 2.5% Matrigel (Corning Inc., cat. 354248) for the first three passages. The 857933-349-R-J2-PDC line was cultured in 6C/Colon 1B media, which includes advanced DMEM/F-12 (Thermo Fisher Scientific, cat. 12634028), 10 mM HEPES (Thermo Fisher Scientific, cat. 15630080), 1X GlutaMAX supplement (Thermo Fisher Scientific, cat. 35050061), 0.1 mg/mL primocin (InvivoGen, cat. ant-pm-2), 10% defined fetal bovine serum, heat inactivated (HyClone Laboratories Inc., cat. SH30070.03HI), 50% L-WRN conditioned media (ATCC, cat. CRL-3276), 1.25 mM N-Acetyl-L-cysteine (Sigma-Aldrich, cat. A9165), 10 mM nicotinamide (Sigma-Aldrich, cat. N0636), 1X B-27 supplement (Thermo Fisher Scientific, cat. 17504044), 1X N-2 supplement (Thermo Fisher Scientific, cat. 17502048), 10 microM Y-27632 dihydrochloride (Tocris Bioscience, cat. 1254), and 50 ng/mL human EGF recombinant protein (Thermo Fisher Scientific, cat. PHG0311). The 485176-168-R4-J1-PDC line was cultured in Panc media, which includes all 6C/Colon 1B media components plus 100 ng/mL human FGF-10 (Thermo Fisher Scientific, cat. 100-26), 500 nM SB-431542 (Selleckchem, cat. S1067), and gastrin (Tocris, cat. 3006).
[…]
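Further: spheroids exposed to agents for 7 days before readout.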
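Wherever viability, T/C is given: percent viability relative to DMSO vehicle control taken as 100%.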

CC(C)(O)C1CCC(Nc2ccc3ncc(-c4cccc(C(F)(F)F)c4)n3n2)CC1 (stereo not given)
> 10000 nM and 1780 nM: IC50 (curve of compound)
inactive: viability, T/C (compound 0.0316 µM) 99.8% and 97.4% and 104% | viability, T/C (compound 0.1 µM) 95.4% and 98.8% and 80.9% | viability, T/C (compound 0.316 µM) 106% and 104% and 101% | viability, T/C (compound 1 µM) 68.3% and 84.7% and 79% | viability, T/C (compound 3.16 µM) 50.6% and 46.8% and 19.7% | viability, T/C (compound 10 µM) 67.2% and 53% and 22.6%

CC1COCCN1c1cc(C2(O)CC3CCC(C2)O3)c2cnn(-c3ccn[nH]3)c2n1 (stereo not given) + Cc1[nH]c2ccc(F)cc2c1-c1nc2c3cccnc3c3ncccc3c2[nH]1
inactive: viability, T/C (second compound 0.0316 µM, first compound 0.0316 µM) 40.4% | viability, T/C (second compound 0.0316 µM, first compound 0.1 µM) 9.87% | viability, T/C (second compound 0.1 µM, first compound 0.0316 µM) 32% | viability, T/C (second compound 0.1 µM, first compound 0.1 µM) 12.5% | viability, T/C (second compound 0.316 µM, first compound 0.0316 µM) 28.5% | viability, T/C (second compound 0.316 µM, first compound 0.1 µM) 13.2% | viability, T/C (second compound 1 µM, first compound 0.0316 µM) 30.4% | viability, T/C (second compound 1 µM, first compound 0.1 µM) 11.7% | viability, T/C (second compound 3.16 µM, first compound 0.0316 µM) 19.1%
< 31.6 nM: IC50 (curve of first compound, second compound 0.0316 µM) | IC50 (curve of first compound, second compound 0.1 µM) | IC50 (curve of first compound, second compound 0.316 µM) | IC50 (curve of first compound, second compound 1 µM) | IC50 (curve of first compound, second compound 3.16 µM) | IC50 (curve of first compound, second compound 10 µM)
active: viability, T/C (second compound 0.0316 µM, first compound 0.316 µM) 7.43% | viability, T/C (second compound 0.0316 µM, first compound 1 µM) 5.2% | viability, T/C (second compound 0.0316 µM, first compound 3.16 µM) 5.12% | viability, T/C (second compound 0.0316 µM, first compound 10 µM) 3.63% | viability, T/C (second compound 0.1 µM, first compound 0.316 µM) 7.69% | viability, T/C (second compound 0.1 µM, first compound 1 µM) 6.04% | viability, T/C (second compound 0.1 µM, first compound 3.16 µM) 5.1% | viability, T/C (second compound 0.1 µM, first compound 10 µM) 3.62% | viability, T/C (second compound 0.316 µM, first compound 0.316 µM) 6.99% | viability, T/C (second compound 0.316 µM, first compound 1 µM) 5.84% | viability, T/C (second compound 0.316 µM, first compound 3.16 µM) 5.13% | viability, T/C (second compound 0.316 µM, first compound 10 µM) 3.71% | viability, T/C (second compound 1 µM, first compound 0.316 µM) 7.32% | viability, T/C (second compound 1 µM, first compound 1 µM) 6.4% | viability, T/C (second compound 1 µM, first compound 3.16 µM) 4.91% | viability, T/C (second compound 1 µM, first compound 10 µM) 3.49% | viability, T/C (second compound 3.16 µM, first compound 0.1 µM) 6.27% | viability, T/C (second compound 3.16 µM, first compound 0.316 µM) 4.26% | viability, T/C (second compound 3.16 µM, first compound 1 µM) 3.69% | viability, T/C (second compound 3.16 µM, first compound 3.16 µM) 3.38% | viability, T/C (second compound 3.16 µM, first compound 10 µM) 1.97% | viability, T/C (second compound 10 µM, first compound 0.0316 µM) 6.89% | viability, T/C (second compound 10 µM, first compound 0.1 µM) 2.8% | viability, T/C (second compound 10 µM, first compound 0.316 µM) 4.24% | viability, T/C (second compound 10 µM, first compound 1 µM) 2.85% | viability, T/C (second compound 10 µM, first compound 3.16 µM) 2.85% | viability, T/C (second compound 10 µM, first compound 10 µM) 1.69%

Cc1cccc(N(C)C(=O)C2C(O)CCN2c2nc(C)cc(C(F)(F)F)c2C#N)c1 (stereo not given)
> 10000 nM: IC50 (curve of compound)
inactive: viability, T/C (compound 0.0316 µM) 94.3% and 102% and 95.3% | viability, T/C (compound 0.1 µM) 97.8% and 81.6% and 93.5% | viability, T/C (compound 0.316 µM) 92.5% and 107% and 96.8% | viability, T/C (compound 1 µM) 88.1% and 99% and 82.6% | viability, T/C (compound 3.16 µM) 92.4% and 88.4% and 96.7% | viability, T/C (compound 10 µM) 96.7% and 83.4% and 98.1%

CCc1c2c(nc3ccc(O)cc13)-c1cc3c(c(=O)n1C2)COC(=O)[C@]3(O)CC
inactive: viability, T/C (compound 0.000999 µM) 63% and 65.3% and 63.2% | viability, T/C (compound 0.00316 µM) 26.9% and 40% and 26.7% | viability, T/C (compound 0.00999 µM) 24.7% and 33% and 30.2% | viability, T/C (compound 0.0316 µM) 15.5% and 21.2% and 14.7%
9.08% and 10.2% and 7.65%: viability, T/C (compound 0.0999 µM)
active: viability, T/C (compound 0.316 µM) 5.27% and 4.91% and 3.96%
1.58 nM and 2.31 nM and 1.63 nM: IC50 (curve of compound)

C=CCn1c(=O)c2cnc(Nc3ccc(N4CCN(C)CC4)cc3)nc2n1-c1cccc(C(C)(C)O)n1
inactive: viability, T/C (compound 0.0316 µM) 97.1% and 105% and 99.8% | viability, T/C (compound 0.1 µM) 95.4% and 102% and 93.9% | viability, T/C (compound 0.316 µM) 37.1% and 32.5% and 33.8%
active: viability, T/C (compound 1 µM) 7.67% and 9.37% and 5.53% | viability, T/C (compound 3.16 µM) 6.89% and 6.69% and 4.84% | viability, T/C (compound 10 µM) 5.09% and 5.85% and 4.19%
245 nM and 237 nM and 232 nM: IC50 (curve of compound)
